Columns and labels:
baNadD = baNadD (Bacillus anthracis, UniProt C3L5T6); format: biochemical
NadD = NadD inhibition, enzyme species not stated at the place; format: biochemical; conditions: 1_02_1 compared with 1_13 and 1_15 (Fig. 4A)

Chain of baNadD (C3L5T6 whole entry, looked up): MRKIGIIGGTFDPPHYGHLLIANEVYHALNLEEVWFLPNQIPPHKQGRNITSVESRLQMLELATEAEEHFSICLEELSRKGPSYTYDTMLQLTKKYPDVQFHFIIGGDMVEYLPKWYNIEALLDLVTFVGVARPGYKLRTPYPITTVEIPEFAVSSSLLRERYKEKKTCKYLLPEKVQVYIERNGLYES

| Molecule | inhibition of baNadD (baNadD) | improvement in activity over monomeric precursors 1_13 and 1_15 (NadD) |
| --- | --- | --- |
| {N'-(4-{Carboxymethyl-[3-(2-chloro-phenylcarbamoyl)-propionyl]-hydrazonomethyl}-benzylidene)-N-[3-(2-chloro-phenylcarbamoyl)-propionyl]-hydrazino}-acetic acid [Compound 1_02_2] | did not inhibit | – |
| O=C(CCC(=O)Nc1ccccc1Cl)N/N=C/c1ccc(/C=N/NC(=O)CCC(=O)Nc2ccccc2Cl)cc1 [Compound 1_02_1, N-(2-Chloro-phenyl)-3-(4-{[3-(2-chloro-phenylcarbamoyl)-propionyl]-hydrazonomethyl}-benzylidene-hydrazinocarbonyl)-propionamide] | – | more than 10 fold |
